Data taken from patent US20230348464A1, “NOVEL VDAC1 INHIBITORS” (ABARCEO AB, priority 2020, published 2023).

System: islets of human T2D organ donors
Assay: not given
Conditions: acute exposure of the T2D islets; cited from earlier work

SMILES	glucose-stimulated insulin secretion (GSIS)
O=C(CC(CO)N1CCN(c2ccc(OC(F)(F)F)cc2)CC1)Nc1ccc(Cl)cc1 (centres unmarked) [CAS: 2086257-77-2, N-(4-chlorophenyl)-4-hydroxy-3-{4-[4-(trifluoromethoxy)phenyl]piperazin-1-yl}butanamide, reference compound]	restored GSIS

Target: T1, recombinant human VDAC1 (hVDAC1) (Homo sapiens, UniProt P21796)
T1 construct: His (N); GST (N); purchased LSBio LS-G25810; host or cells: E. coli
Assay: Microscale Thermophoresis (MST) binding assay with labeled VDAC1
Conditions: MST plot of FIG. 1
From the text: MicroScale Thermophoresis (MST) is a biophysical technique that measures the strength of interaction (affinity) between two molecules by detecting variations in fluorescence signal as a result of an IR-laser induced temperature change. The range of the variation in the fluorescence signal correlates with the binding of a ligand to a fluorescent target. By that it allows for quantitative analysis of molecular interactions in solution on the microliter scale with high sensitivity.The MST signal is composed of two major factors: The TRIC effect and the thermophoresis. TRIC stands for Temperature-Related Intensity-Change and describes how the fluorescence intensity of a fluorophore depends on the local temperature of the solution. For the vast majority of fluorophores, the fluorescence intensity decreases with increasing temperature. Most importantly, however, the extent of the temperature dependence is strongly related to the chemical environment of the fluorophore. This environment is sensitively affected by the binding of a ligand molecule to the fluorescently labeled target molecule (via conformational changes or ligand-dye proximity). The second component of the MST-signal, the thermophoresis describes the movement of molecules along temperature gradients which results in a quantifiable change of the local concentration of the target molecules. As these target molecules are fluorescently labeled in MST, such concentration changes can be monitored simply by fluorescence measurements. This directed movement of molecules depends on their molecular size, charge, and hydration shell. Binding of a ligand to a target molecule leads to the change of at least one of these parameters and therefore to an altered thermophoretic movement of the target-ligand complex compared to the single molecules alone. In sum, both TRIC and thermophoresis contribute to the overall MST-signal, which is detected by fluorescence measurement. Due to this robust physical principle and direct monitoring, MST can be used for determining the affinity and binding strength of almost any kind of molecular interaction or modification of small molecules, proteins, peptides, DNA, sugars, or molecular complexes.
Reconstituted N-terminal His-GST tagged E. coli recombinant human VDAC1 (hVDAC1) was buffer exchanged into protein labeling buffer due to the primary amine of the Tris lyophilization buffer interferes with NHS-based labeling. The labeling buffer was kept as close to the storage buffer of the target protein as given on the protein data sheet (LSBio LS-G25810). Tris was replaced by HEPES. PLURONIC® F-127 was added to 0.05% in order to enhance protein recovery in the final dye removal step. The total volume of the labeling batch was 100 µL. The labeling time was 30 minutes. The labeling reaction was performed at room temperature. Any unbound or unreacted dye was separated from the labeled protein on a gravity-flow gel-filtration column (GE Healthcare, PD Minitrap G-25, GE28-9180-07). The final target buffer was kept as close to the original protein storage buffer as possible. It contained Tris again instead of HEPES.
The first step of the technical assay establishment was a so-called “noise test”. In this test, the intrinsic MST-noise of the labeled target protein was tested. Subsequently, a reference compound or positive control (CAS number: 2086257-77-2) was characterized to confirm previously reported VDAC1 binding (Zhang et al (2019)). Preserving Insulin Secretion in Diabetes by Inhibiting VDAC1 Overexpression and Surface Translocation in β Cells″. Cell Metabolism 29, 64-77.). In short, serial dilutions of the compound having CAS number: 2086257-77-2 was prepared in a way to match the final buffer conditions in the reaction mix (assay buffer). The highest concentration of ligand was 10.0 mM and the lowest 4.88 µM. A total of 12 dilution steps were prepared. […]

T1 sequence (P21796 whole entry): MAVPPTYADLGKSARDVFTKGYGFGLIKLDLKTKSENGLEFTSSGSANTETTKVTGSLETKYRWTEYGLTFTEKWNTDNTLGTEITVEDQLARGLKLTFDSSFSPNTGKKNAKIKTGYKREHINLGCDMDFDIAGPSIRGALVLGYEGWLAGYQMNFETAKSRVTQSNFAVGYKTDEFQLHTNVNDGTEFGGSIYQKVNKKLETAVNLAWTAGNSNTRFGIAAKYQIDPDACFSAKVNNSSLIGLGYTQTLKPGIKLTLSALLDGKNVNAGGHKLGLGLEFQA

SMILES	S/N of MST plot	dFnorm of MST plot
O=C(CC(CO)N1CC2=C(CN(c3ccc(OC(F)(F)F)cc3)C2)C1)Nc1ccc(Cl)cc1 (centres unmarked) [Example 4, N-(4-chlorophenyl)-4-hydroxy-3-{5-[4-(trifluoromethoxy)phenyl]-1H,2H,3H,4H,5H,6H-pyrrolo[3,4-c]pyrrol-2-yl}butanamide]	20.1	23.9

Same assay, conditions: MST, 5 nM labeled VDAC1, 25° C., 12-point dilution 100-0.04 µM; read-out: VDAC1 affinity (KD)

SMILES	Kd [µM]
O=C(NCC(CO)N1CCN(c2ccc(OC(F)(F)F)cc2)CC1)c1ccc(Cl)cc1 (centres unmarked) [Example 1, 4-chloro-N-(3-hydroxy-2-{4-[4-(trifluoromethoxy)phenyl]piperazin-1-yl}propyl)benzamide]	12
O=C(CC(CO)N1CCCC2C1CCN2c1ccc(OC(F)(F)F)cc1)Nc1ccc(Cl)cc1 (centres unmarked) [Example 8, N-(4-chlorophenyl)-4-hydroxy-3-{1-[4-(trifluoromethoxy)phenyl]-octahydro-1H-pyrrolo[3,2-b]pyridin-4-yl}butanamide]	2.8
O=C(CC(CO)N1CCN(c2ccc(OC(F)(F)F)cc2)CC1)Nc1ccc(Cl)cc1 (centres unmarked) [CAS: 2086257-77-2, N-(4-chlorophenyl)-4-hydroxy-3-{4-[4-(trifluoromethoxy)phenyl]piperazin-1-yl}butanamide, reference compound]	14
O=C(CC(CO)N1CC2=C(CN(c3ccc(OC(F)(F)F)cc3)C2)C1)Nc1ccc(Cl)cc1 (centres unmarked) [Example 4, N-(4-chlorophenyl)-4-hydroxy-3-{5-[4-(trifluoromethoxy)phenyl]-1H,2H,3H,4H,5H,6H-pyrrolo[3,4-c]pyrrol-2-yl}butanamide]	5.1
O=C(CC(CO)N1CCCN(c2ccc(OC(F)(F)F)cc2)CC1)Nc1ccc(Cl)cc1 (centres unmarked) [Example 3, N-(4-chlorophenyl)-4-hydroxy-3-{4-[4-(trifluoromethoxy)phenyl]-1,4-diazepan-1-yl}butanamide]	5.2
O=C(CC(CO)N1CC2(CCN(c3ccc(OC(F)(F)F)cc3)C2)C1)Nc1ccc(Cl)cc1 (centres unmarked) [Example 7, N-(4-chlorophenyl)-4-hydroxy-3-{6-[4-(trifluoromethoxy)phenyl]-2,6-diazaspiro[3.4]octan-2-yl}butanamide]	13.1
O=C(CC(CO)N1CCOC2(CCN(c3ccc(OC(F)(F)F)cc3)C2)C1)Nc1ccc(Cl)cc1 (centres unmarked) [Example 5, N-(4-chlorophenyl)-4-hydroxy-3-{2-[4-(trifluoromethoxy)phenyl]-6-oxa-2,9-diazaspiro[4.5]decan-9-yl}butanamide]	3.8
O=C(CC(CO)N1CC2CN(c3ccc(OC(F)(F)F)cc3)CC2C1)Nc1ccc(Cl)cc1 (centres unmarked) [Example 9, N-(4-chlorophenyl)-4-hydroxy-3-{5-[4-(trifluoromethoxy)phenyl]-octahydropyrrolo[3,4-c]pyrrol-2-yl}butanamide]	11.4
O=C(CC(CO)N1CCCC(C2CN(c3ccc(OC(F)(F)F)cc3)C2)C1)Nc1ccc(Cl)cc1 (centres unmarked) [Example 6, N-(4-chlorophenyl)-4-hydroxy-3-(3-{1-[4-(trifluoromethoxy)phenyl]azetidin-3-yl}piperidin-1-yl)butanamide]	9.8
O=C(CC(CO)N1CCCC2(CCCN(c3ccc(OC(F)(F)F)cc3)C2)C1)Nc1ccc(Cl)cc1 (centres unmarked) [Example 10, N-(4-chlorophenyl)-4-hydroxy-3-{8-[4-(trifluoromethoxy)phenyl]-2,8-diazaspiro[5.5]undecan-2-yl}butanamide]	1.9
O=C(CC(CCO)N1CCN(c2ccc(OC(F)(F)F)cc2)CC1)Nc1ccc(Cl)cc1 (centres unmarked) [Example 2, N-(4-chlorophenyl)-5-hydroxy-3-{4-[4-(trifluoromethoxy)phenyl]piperazin-1-yl}pentanamide]	8.4
